# What was measured:
# Mastomys natalensis [1] = assay: Filaricidal activity against Brugia malayi in Mastomys at a dosage of 50 mg/kg x 5 administered intraperitoneally; type: functional; conditions: route intraperitoneal
# Mus musculus [2] = assay: Anthelmintic activity against Syphacia obvelata in mice at a dose of 25x1 mg/kg administered perorally; type: functional
# Mastomys natalensis [3] = assay: Filaricidal activity against Dipetalonema viteae in Mastomys at a dosage of 150 mg/kg x 5 administered orally at a day of 8; type: functional; conditions: route oral
# Mastomys natalensis [4] = assay: Filaricidal activity against Dipetalonema viteae in Mastomys at a dosage of 25 mg/kg x 5 administered subcutaneous; type: functional
# Mastomys natalensis [5] = assay: Filaricidal activity against Brugia malayi in Mastomys at a dosage of 200 mg/kg x 5 administered orally at a day of 63; type: functional; conditions: route oral
# Rattus norvegicus [6] = assay: Anthelmintic activity against Hymenolepis nana in rats at a dose of 50x1 mg/kg administered perorally; type: functional
# Mastomys natalensis [7] = assay: Filaricidal activity against Brugia malayi in Mastomys at a dosage of 200 mg/kg x 5 administered orally at a day of 42; conditions: route oral
# Mastomys natalensis [8] = assay: Filaricidal activity against Brugia malayi in Mastomys at a dosage of 200 mg/kg x 5 administered orally; type: functional; conditions: route oral
# Sigmodon hispidus [9] = assay: Filaricidal activity against Litomosoides carinii in cotton rats at a dosage of 100 mg/kg x 5 administered orally at a day of 21; conditions: route oral
# Mastomys natalensis [10] = assay: Filaricidal activity against Brugia malayi in Mastomys at a dosage of 200 mg/kg x 5 administered orally at a day of 91; type: functional; conditions: route oral
# Rattus norvegicus [11] = assay: Anthelmintic activity against Hymenolepis nana in rats at a dose of 250x1 mg/kg administered perorally; type: functional
# Mastomys natalensis [12] = assay: Filaricidal activity against Brugia malayi in Mastomys at a dosage of 200 mg/kg x 5 administered orally at a day of 21; type: functional; conditions: route oral
# Mus musculus [13] = assay: Anthelmintic activity against Syphacia obvelata in mice at a dose of 50x1 mg/kg administered perorally; type: functional
# Rattus norvegicus [14] = assay: Anthelmintic activity against Hymenolepis nana in rats at a dose of 100x1 mg/kg administered perorally; type: functional
# Sigmodon hispidus [15] = assay: Filaricidal activity against Litomosoides carinii in cotton rats at a dosage of 10 mg/kg x 5 administered intraperitoneally at a day of 21; conditions: route intraperitoneal
# Mastomys natalensis [16] = assay: Filaricidal activity against Dipetalonema viteae in Mastomys at a dosage of 150 mg/kg x 5 administered orally at a day of 21; type: functional; conditions: route oral
# Sigmodon hispidus [17] = assay: Filaricidal activity against Litomosoides carinii in cotton rats at a dosage of 10 mg/kg x 5 administered intraperitoneally at a day of 8; conditions: route intraperitoneal
# Cricetinae gen. sp. [18] = assay: Anthelmintic activity against Ancylostoma ceylanicum in hamsters at a dose of 25x1 mg/kg administered perorally; type: functional, Cricetulus griseus
# Rattus norvegicus [19] = assay: Filaricidal activity against Litomosoides carinii in cotton rats at a dosage of 100 mg/kg x 5 administered orally; type: functional; conditions: route oral
# Rattus norvegicus [20] = assay: Filaricidal activity against Litomosoides carinii in cotton rats at a dosage of 10 mg/kg x 5 administered intraperitoneally at a day of 42; type: functional; conditions: route intraperitoneal
# Mastomys natalensis [21] = assay: Filaricidal activity against Dipetalonema viteae in Mastomys at a dosage of 150 mg/kg x 5 administered orally at a day of 42; type: functional; conditions: route oral
# Mus musculus [22] = assay: Anthelmintic activity against Syphacia obvelata in mice at a dose of 100x1 mg/kg administered perorally; type: functional
# Mastomys natalensis [23] = assay: Filaricidal activity against Brugia malayi in Mastomys at a dosage of 50 mg/kg x 5 administered intraperitoneally at a day of 42; type: functional; conditions: route intraperitoneal
# Cricetinae gen. sp. [24] = assay: Anthelmintic activity against Ancylostoma ceylanicum in hamsters at a dose of 6.25 x1 mg/kg administered perorally; type: functional, Cricetulus griseus
# Sigmodon hispidus [25] = assay: Filaricidal activity against Litomosoides carinii in cotton rats at a dosage of 100 mg/kg x 5 administered orally at a day of 8; conditions: route oral
# Mastomys natalensis [26] = assay: Filaricidal activity against Brugia malayi in Mastomys at a dosage of 50 mg/kg x 5 administered intraperitoneally at a day of 91; type: functional; conditions: route intraperitoneal
# Cricetinae gen. sp. [27] = assay: Anthelmintic activity against Ancylostoma ceylanicum in hamsters at a dose of 12.5x1 mg/kg administered perorally; type: functional, Cricetulus griseus
# Mastomys natalensis [28] = assay: Filaricidal activity against Brugia malayi in Mastomys at a dosage of 200 mg/kg x 5 administered orally at a day of 8; type: functional; conditions: route oral
# Mastomys natalensis [29] = assay: Filaricidal activity against Dipetalonema viteae in Mastomys at a dosage of 150 mg/kg x 5 administered orally; type: functional; conditions: route oral
# Sigmodon hispidus [30] = assay: Filaricidal activity against Litomosoides carinii in cotton rats at a dosage of 100 mg/kg x 5 administered orally at a day of 42; conditions: route oral
# Mastomys natalensis [31] = assay: Filaricidal activity against Brugia malayi in Mastomys at a dosage of 50 mg/kg x 5 administered intraperitoneally at a day of 21; type: functional; conditions: route intraperitoneal
# Mastomys natalensis [32] = assay: Filaricidal activity against Dipetalonema viteae in Mastomys at a dosage of 25 mg/kg x 5 administered subcutaneous at a day of 8; type: functional
# Mastomys natalensis [33] = assay: Filaricidal activity against Dipetalonema viteae in Mastomys at a dosage of 25 mg/kg x 5 administered subcutaneous at a day of 42; type: functional
# Cricetinae gen. sp. [34] = assay: Anthelmintic activity against Ancylostoma ceylanicum in hamsters at a dose of 50x1 mg/kg administered perorally; type: functional, Cricetulus griseus
# Mastomys natalensis [35] = assay: Filaricidal activity against Brugia malayi in Mastomys at a dosage of 50 mg/kg x 5 administered intraperitoneally at a day of 8; type: functional; conditions: route intraperitoneal
# Mastomys natalensis [36] = assay: Filaricidal activity against Dipetalonema viteae in Mastomys at a dosage of 25 mg/kg x 5 administered subcutaneous at a day of 21; type: functional
# Mastomys natalensis [37] = assay: Filaricidal activity against Brugia malayi in Mastomys at a dosage of 50 mg/kg x 5 administered intraperitoneally at a day of 63; type: functional; conditions: route intraperitoneal
# Cricetinae gen. sp. [38] = assay: Anthelmintic activity against Ancylostoma ceylanicum (hook worm) in hamsters at a dose of 50x1 mg/kg administered perorally; type: functional, Cricetulus griseus
# Sigmodon hispidus [39] = assay: Filaricidal activity against Litomosoides carinii in cotton rats at a dosage of 10 mg/kg x 5 administered intraperitoneally at a day of 42; conditions: route intraperitoneal
# Mastomys natalensis [40] = assay: Filaricidal activity against Dipetalonema viteae in Mastomys at a dosage of 175 mg/kg x 5 administered subcutaneous at a day of 8; type: functional
# Mastomys natalensis [41] = assay: Filaricidal activity against Dipetalonema viteae in Mastomys at a dosage of 175 mg/kg x 5 administered subcutaneous at a day of 42; type: functional
# Mastomys natalensis [42] = assay: Filaricidal activity against Dipetalonema viteae in Mastomys at a dosage of 175 mg/kg x 5 administered subcutaneous; type: functional
# [43] = Filaricidal activity against Litomosoides carinii in cotton rats at a dosage of 6 mg/kg x 5 administered intraperitoneally at a day of 8; conditions: route intraperitoneal
# Rattus norvegicus [44] = assay: Filaricidal activity against Litomosoides carinii in cotton rats at a dosage of 6 mg/kg x 5 administered intraperitoneally; type: functional; conditions: route intraperitoneal
# Mastomys natalensis [45] = assay: Filaricidal activity against Dipetalonema viteae in Mastomys at a dosage of 175 mg/kg x 5 administered subcutaneous at a day of 21; type: functional
compound,measurement,setting,value
COC(=O)Nc1nc2cc(C(=O)c3ccc4[nH]c(NC(=O)OC)nc4c3)ccc2[nH]1,Death,Mastomys natalensis [1],99%
same,Animals cured,Mus musculus [2],0%
same,Removal of microfilariae,Mastomys natalensis [3],0%
same,Death,Mastomys natalensis [4],100%
same,Removal of microfilariae,Mastomys natalensis [5],63.9%
same,Animals cured,Rattus norvegicus [6],16.6%
same,Removal of microfilariae,Mastomys natalensis [7],30%
same,Death,Mastomys natalensis [8],97%
same,Removal of microfilariae,Sigmodon hispidus [9],80.9%
same,Removal of microfilariae,Mastomys natalensis [10],94%
same,Animals cured,Rattus norvegicus [11],100%
same,Removal of microfilariae,Mastomys natalensis [12],0%
same,Animals cured,Mus musculus [13],66.6%
same,Animals cured,Rattus norvegicus [14],50%
same,Removal of microfilariae,Sigmodon hispidus [15],100%
same,Removal of microfilariae,Mastomys natalensis [16],0%
same,Removal of microfilariae,Sigmodon hispidus [17],65.6%
same,Animals cured,Cricetinae gen. sp. [18],50%
same,Worm reduction,Cricetinae gen. sp. [18],60%
same,Death,Rattus norvegicus [19],100%
same,Death,Rattus norvegicus [20],100%
same,Removal of microfilariae,Mastomys natalensis [21],100%
same,Animals cured,Mus musculus [22],100%
same,Removal of microfilariae,Mastomys natalensis [23],89%
same,Animals cured,Cricetinae gen. sp. [24],0%
same,Worm reduction,Cricetinae gen. sp. [24],0%
same,Removal of microfilariae,Sigmodon hispidus [25],72%
same,Removal of microfilariae,Mastomys natalensis [26],93%
same,Animals cured,Cricetinae gen. sp. [27],0%
same,Worm reduction,Cricetinae gen. sp. [27],40.4%
same,Removal of microfilariae,Mastomys natalensis [28],0%
same,Death,Mastomys natalensis [29],100%
same,Removal of microfilariae,Sigmodon hispidus [30],100%
same,Removal of microfilariae,Mastomys natalensis [31],60.1%
same,Removal of microfilariae,Mastomys natalensis [32],0%
same,Removal of microfilariae,Mastomys natalensis [33],100%
same,Animals cured,Cricetinae gen. sp. [34],100%
same,Removal of microfilariae,Mastomys natalensis [35],0%
same,Removal of microfilariae,Mastomys natalensis [36],58.8%
same,Removal of microfilariae,Mastomys natalensis [37],89.4%
same,Worm reduction,Cricetinae gen. sp. [38],100%
same,Removal of microfilariae,Sigmodon hispidus [39],100%
CCN(CC)C(=O)N1CCN(C)CC1 [DIETHYLCARBAMAZINE],Death,Mastomys natalensis [1],57.8%
same,Removal of microfilariae,Mastomys natalensis [40],99.6%
same,Removal of microfilariae,Mastomys natalensis [41],51.6%
same,Death,Mastomys natalensis [42],0%
same,Removal of microfilariae,Mastomys natalensis [23],90.7%
same,Removal of microfilariae,[43],97.1%
same,Death,Rattus norvegicus [44],0%
same,Removal of microfilariae,Mastomys natalensis [26],91.6%
same,Removal of microfilariae,Mastomys natalensis [45],94.1%
same,Removal of microfilariae,Mastomys natalensis [31],88.6%
same,Removal of microfilariae,Mastomys natalensis [35],95.9%
same,Removal of microfilariae,Mastomys natalensis [37],71.6%
